From patent US20240309015A1, “Methods for the Treatment of Fibrotic Disease” (SHY Therapeutics, LLC, priority 2021, published 2024)

Experiments:
Smad2/3 phosphorylation = assay: Phospho-Smad2/3 Inhibition Assay in PANC-1; type: cell-based; settings: Homo sapiens, western blot
How it was run: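 Serum-starved cells (0.5% FBS overnight) pretreated 3 h at 37 °C with compound at 10 μM or serial dilutions for IC50, in 0.3% DMSO. TGF-b1 10 ng/ml stimulation: 1 h for Panc-1 (human), 20 min for C2C12 (mouse). Phospho-Smad2 (Ser465/467) and phospho-Smad3 (Ser423/425) measured by western blot of lysates.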

KRas wild type = assay: Ras GTP Binding Domain Inhibition Assay, KRas wild type; settings: at 20 μM
How it was run: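 Read-out is fluorescence of Cy3- or Cy5-GTP (100 nM, 45 min, room temperature) still bound after three washes. Beforehand, His-tagged protein on nickel wells was exposed to compound (20 μM, or a dilution series for IC50) for 3 h, with or without Sos in the last hour.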

IC50 (Smad2/3 phosphorylation; PANC-1, TGF-b1 stimulated): 5 to 10 µM | KRas wild type + SOS: % inh. (KRas wild type; with SOS): D (D = 76-100% inhibition) | KRas wild type: % inh. (KRas wild type; without SOS): B (B = 26-45% inhibition)
Structure (SMILES): CO[C@H]1CC[C@@H](Nc2nc(-c3nccn3C)nc3sc(-c4ccn(C)n4)c(-c4ccccc4)c23)C1 (racemic) [Compound 5, rac-N-((1R,3S)-3-Methoxycyclopentyl)-2-(1-methyl-1H-imidazol-2-yl)-6-(1-methyl-1H-pyrazol-3-yl)-5-phenylthieno[2,3-d]pyrimidin-4-amine]
inhibition at 10 µM (Smad2/3 phosphorylation; 10 μM compound, 3 h, TGF-b1 stimulated PANC-1, read-out: % inh of Smad2/3 phosphorylation in PANC-1): 76 to 100%
